In patent publication US10351915B2 (Berg LLC, priority 2009, dated 2019):

Key:
[1] = LC-MS/MS quantification of Q10, Q10H2 and Q9 in mitochondrial enriched samples; format: cell-based
Protocol: Ten μl of each sample was injected.

ATP Citrate Lyase (ACL) = assay: Western blot, ATP Citrate Lyase levels; format: cell-based, human; conditions: for ATP Citrate Lysase as % of CTRL, Normalized Intensity: 48 h
Protocol: After transfer each of the blots was placed in between 2 Whatman Filter papers and dried for 15-20 minutes. After drying the blots were labeled with the date, the type of samples and either blot 1 or blot 2 using a HB pencil. The molecular weight markers were outlined with the pencil and with single lines for the blue and a doublet for the colored markers. The blots were activated with methanol for 5 seconds, washed with water for 5 minutes, and TBST for 15 minutes. The blots were blocked for 1 hour with 5% blocking reagent in TBS-T at room temperature and then washed 3 times with TBS-T (1×-15′; 2×5′ each). Blot 1 was probed with the primary antibody for IDH1 (Cell Signaling #3997) in TBST with 5% BSA (at 1:1000 dilutions) and blot 2 with the rabbit polyclonal antibody for ATP Citrate Lyase in 5% BSA (Cell Signaling #4332) at 1:1000 dilution by incubation overnight at 4 deg C. with shaking. After the overnight incubation with primary antibodies, the blots were washed 3 times with TBS-T (1×-15′; 2×5′ each) and probed with the secondary antibody (antirabbit; 1:10,000 dilution) for 1 h on the orbital tilting shaker at room temperature. After 1 h of incubation with secondary antibodies, the blots were washed 3 times with TBS-T (1×-15′; 2×5′ each) and then incubated with ECF reagent for 5 mins and then each blot scanned with 5100 Fuji Laser scanner at 25 uM resolution, 16 bit, green laser, at 400V and at 500 V.
The Isocitrate dehydrogenase blot was stripped by incubating for 30 minutes with methanol, followed by two 10 minute washes with TBS-T, then 30 minutes of incubation with stripping buffer at 50 deg C., and followed by two washes with 100 ml or more of TBS-T for 30′ each. The blot was scanned in laser scanner to check for complete stripping. The blot was activated with methanol for 5 seconds, washed with water for 5 minutes, and TBST for 15 minutes. The blot was blocked for 1 hour with 5% blocking reagent in TBS-T at room temperature and then washed 3 times with TBS-T (1×-15′; 2×5′ each). This was then probed with the rabbit polyclonal antibody for ATP Citrate Lyase in 5% BSA (Cell Signaling #4332) at 1:1000 dilution overnight at 4 deg C. with shaking. After the overnight incubation with primary antibody for ATP Citrate Lyase, the membrane was washed 3 times with TBS-T (1×-15′; 2×5′ each) and probed with the secondary antibody (antirabbit; 1:10,000 dilution) for 1 h on the orbital tilting shaker at room temperature. After 1 h of incubation with secondary antibodies, the blot was washed 3 times with TBS-T (1×-15′; 2×5′ each) and then incubated with ECF reagent for 5 minutes and then each blot scanned with 5100 Fuji Laser scanner at 25 uM resolution, 16 bit, green laser, at 400V and at 500 V.
The levels of IDH1, ATP citrate lyase and actin levels were determined by probing the blots with primary antibodies for IDH1, ATP citrate lyase and actin, essentially as described above.

HDFa cells = assay: Oxygen consumption rate (OCR), SeaHorse XF analyzer; format: cell-based, human; conditions: normal cells (HDFa)
Excerpt: (SeaHorse Biosciences Inc, North Billerica, Mass.).
In this experiment, the OCR and extracellular acidification rate (ECAR) in normal cells lines were obtained in the presence and absence of CoQ10 to determine baseline values. It was observed that in its native nutrient environment, the basal OCR rates in normal cells lines are different, and are usually a function of the physiological roles of the cells in the body.
FIGS. 37 and 38 below describes the OCR in HDFa and HASMC cells grown in physiologically normal glucose (about 4.6 mM) and high glucose (hyperglycemic) conditions.

Bcl2 = Bcl2 level after CoQ-10 in the presence of VEGF; format: cell-based; conditions: normal fibroblast, co-administration with VEGF

Q: For `COC1=C(OC)C(=O)C(C/C=C(\C)CC/C=C(\C)CC/C=C(\C)CC/C=C(\C)CC/C=C(\C)CC/C=C(\C)CC/C=C(\C)CC/C=C(\C)CC/C=C(\C)CCC=C(C)C)=C(C)C1=O` [Q10, Coenzyme Q10], which “increase in Q10 levels in mitochondria” value ([1]; 100 μM Q10, 19 hours) is on record?
A: ~3 fold

Q: And the “increase in Q10 levels in mitochondria” value ([1]; 100 μM Q10, 48 hour time point)?
A: ~6 fold

Q: What about the “form of Q10 in mitochondria” value ([1]; exogenous Q10 added to the media) of the same compound?
A: maintained in the supplied oxidized form

Q: What about the “ATP Citrate Lysase as % of CTRL, Normalized Intensity” value (ATP Citrate Lyase (ACL); HepG2, 5g glucose, amount 50) of the same compound?
A: 0.85 % of CTRL

Q: What about the “ATP Citrate Lysase as % of CTRL, Normalized Intensity” value (ATP Citrate Lyase (ACL); HepG2, 5g glucose, amount 100) of the same compound?
A: 0.79 % of CTRL

Q: What about the “ATP Citrate Lysase as % of CTRL, Normalized Intensity” value (ATP Citrate Lyase (ACL); HepG2, 22G glucose, amount 100) of the same compound?
A: 2.09 % of CTRL

Q: What about the “ATP Citrate Lysase as % of CTRL, Normalized Intensity” value (ATP Citrate Lyase (ACL); PACA2, 5g glucose, amount 50) of the same compound?
A: 0.68 % of CTRL

Q: What about the “ATP Citrate Lysase as % of CTRL, Normalized Intensity” value (ATP Citrate Lyase (ACL); PACA2, 5g glucose, amount 100) of the same compound?
A: 0.42 % of CTRL

Q: And the “ATP Citrate Lysase as % of CTRL, Normalized Intensity” value (ATP Citrate Lyase (ACL); PACA2, 22G glucose, amount 50)?
A: 1.12 % of CTRL

Q: What about the “expression of ACL” value (ATP Citrate Lyase (ACL); cancer cells) of the same compound?
A: dose-dependent decrease

Q: What about the OCR (HDFa cells) of the same compound?
A: influenced OCR

Q: What about the “levels of Bcl2” value (Bcl2) of the same compound?
A: no effect on the levels of Bcl2
